Measured values taken from patent US20250115628A1, “FLUORINATED FLUOROPHORES” (HOWARD HUGHES MEDICAL INSTITUTE, priority 2023, published 2025).
Like-named read-outs stand apart in the source and are kept apart here.

What was measured:
[1] = Determination of KL-Z (lactone-zwitterion equilibrium constant); assay type: physicochemical; set-up: key: KL-Z = (εdw/εmax)/(1−εdw/εmax); εdw measured in 1:1 dioxane/water; details: 1:1 dioxane:H2O
Procedure: KL-Z was calculated using the following equation:^16, 18 KL-Z=(εdw/εmax)/(1−εdw/εmax). εdw is the extinction coefficient of the dyes in a 1:1 (v/v) dioxane/water solvent mixture; this dioxane/water mixture was chosen to give the maximum spread of KL-Z values across all classes of rhodamines.^18 εmax refers to the maximal extinction coefficients measured in different solvent mixtures empirically determined depending on dye type: 0.1% v/v trifluoroacetic acid in ethanol for 18, 20, 29, 34, 36, 70-72, 81-83, 93-95, 99-102, and 104; 0.1% v/v trifluoroacetic acid in 2,2,2^−trifluoroethanol for all other rhodamine variants. A accurate determination of low KL-Z values is complicated by the relatively poor sensitivity of absorbance measurements.

[2] = General UV-vis and fluorescence spectroscopy; assay type: physicochemical; details: 10 mM HEPES, pH 7.3
Procedure: Spectroscopy was performed using 1^−cm path length, 3.5^−mL quartz cuvettes or 1^−cm path length, 1.4^−mL semi-micro quartz cuvettes from Starna Cells. All measurements were taken at ambient temperature (22±2° C.). Absorption spectra were recorded on a Cary Model 100 spectrometer (Agilent), and fluorescence spectra were recorded on a Cary Eclipse fluorometer (Varian). The spectra, maximum absorption wavelength (labs), extinction coefficient at λabs (8), and maximum emission wavelength (em) were measured in 10 mM HEPES, pH 7.3 buffer (rhodamines and Malachite Green derivative 49) or 0.1 M NaOH (fluoresceins); the reported values for e are averages (n=3). Normalized spectra are shown for clarity.

[3] = Quantum yield determination; assay type: physicochemical; details: rhodamine derivatives; 10 mM HEPES, pH 7.3
Procedure: All reported absolute fluorescence quantum yield values (Φf) were measured using a Quantaurus-QY spectrometer (model C11374, Hamamatsu). This instrument uses an integrating sphere to determine photons absorbed and emitted by a sample. Measurements were carried out using dilute samples (A<0.1), and self-absorption corrections were performed using the instrument software.^81

[4] = rhodamine derivatives; 10 mM HEPES, pH 7.3; data from the inventors' published work; cited from earlier work

Compound	KL-Z ([1]; quinolinyl rhodamines)	ε ([2]; quinolinyl rhodamines)	λabs ([2]; quinolinyl rhodamines) [nm]	λem ([2]; quinolinyl rhodamines) [nm]	KL-Z ([1]; rhodamine derivatives)	ε ([2]; rhodamine derivatives)	λabs ([2]; rhodamine derivatives) [nm]	λem ([2]; rhodamine derivatives) [nm]	Φf [3]	λabs [4] [nm]
CC1=CC(C)(C)N(C)c2cc3c(cc21)C(c1c(F)c(F)c(F)c(F)c1C(=O)[O-])=c1cc2c(cc1[Si]3(C)C)=[N+](C)C(C)(C)C=C2C [compound 38, 2^−(1,2,2,4,8,10,10,11,13,13^−Decamethyl-2,10,11,13-tetrahydrosilino[3,2^−g:5,6^−g]diquinolin-6^−ylium-6(1H)-yl)-3,4,5,6^−tetrafluorobenzoate]	0.3251	5,700 M^−1cm^−1	754	774						
CCC1=CC2=C(c3c(F)c(F)c(F)c(F)c3C(=O)O)c3cc4c(cc3C(C)(C)C2=CC1=NC)NCCC4 [compound 47, 4,5,6,7^−Tetrafluoro-carbo-Q-rhodamine]					10.8	124,000 M^−1cm^−1	621	638	0.37	
CCc1cc2c(c3c1=[N+](C)CCC3)C(C)(C)c1c(cc3c4c1CCCN4CCC3)C=2c1c(F)c(F)c(F)c(F)c1C(=O)[O-] [compound 57, JF660]					7.55	148,000 M^−1cm^−1	660	673	0.54	
CCc1cc2c(c3c1=[N+](C)CCC3)C(C)(C)c1cc3c(cc1C=2c1c(F)c(F)c(F)c(F)c1C(=O)[O-])C(C)CC(C)(C)N3CC (stereo not drawn) [compound 59, JF657]					4.97	137,000 M^−1cm^−1	657	672	0.50	
C=C/C=C(C=C)/[N+](C)=C1\C=CC2=C(c3c(F)c(F)c(F)c(F)c3C(=O)[O-])c3ccc(N(C)c4ccccc4)cc3C(C)(C)C2=C1 [compound 65, JQ645]					0.344	2,700 M^−1cm^−1	645			
N=c1ccc2c(-c3c(F)c(F)c(F)c(F)c3C(=O)O)c3ccc(N)cc3oc-2c1 [compound 70, 4,5,6,7^−Tetrafluoro-rhodamine 110]					9.81	84,500 M^−1cm^−1	516	536	0.64	
CC1(C)C2=CC(=N)C=CC2=C(c2c(F)c(F)c(F)c(F)c2C(=O)O)c2ccc(N)cc21 [compound 71, 4,5,6,7^−Tetrafluoro-carborhodamine 110]					0.832	96,400 M^−1cm^−1	575	597	0.53	
C[Si]1(C)C2=CC(=N)C=CC2=C(c2c(F)c(F)c(F)c(F)c2C(=O)O)c2ccc(N)cc21 [compound 72, 4,5,6,7^−Tetrafluoro-Si-rhodamine 110]					0.0195	77,800 M^−1cm^−1	611	627	0.42	
CCC1=CC2=C(c3ccccc3C(=O)O)c3cc4c(cc3C(C)(C)C2=CC1=NC)NCCC4 [compound 94, Carbo-Q-rhodamine]					1.51	101,000 M^−1cm^−1	598	620	0.51	
CC1=CC(C)(C)Nc2cc3c(cc21)C(c1ccccc1C(=O)O)=c1cc2c(cc1[Si]3(C)C)=NC(C)(C)C=C2C [compound 102, 2^−(2,2,4,8,10,10,13,13-Octamethyl-2,10,11,13-tetrahydrosilino[3,2^−g:5,6^−g]diquinolin-6^−ylium-6(1H)-yl)-benzoate]	0.0143	4,800 M^−1cm^−1	686	711						
CC1=CC(C)(C)N(C)c2cc3c(cc21)C(c1ccccc1C(=O)[O-])=c1cc2c(cc1[Si]3(C)C)=[N+](C)C(C)(C)C=C2C [compound 104, 2^−(1,2,2,4,8,10,10,11,13,13^−Decamethyl-2,10,11,13-tetrahydrosilino[3,2^−g:5,6^−g′]diquinolin-6^−ylium-6(1H)-yl)-benzoate]	0.0045	1,200 M^−1cm^−1	720	740						
Si-Q-rhodamine [compound 95]										637
